# Measurements: patent US11040106B2, “Conjugates of kinase inhibitors and cyanine dyes” (priority 2018, dated 2021)
# “Also recorded” adds a separate entry of the source.
# Key:
# HEPG2 cells = assay: Cytotoxicity (cell viability, MTT assay) on HEPG2 cells; type: cell-based; conditions: HEPG2 cells (liver cancer)
# Description: Approximately 5000 HEPG2 cells/well were seeded on 96 well plate containing 10% fetal bovine serum. Cells were allowed to adhere overnight before test compounds were added. Stock solutions of 1a (0.02 M in DMSO) were diluted with protein-free medium (PFHM-II) to make desired final concentrations varying from 0.01 to 80 μM. The cells were incubated with the desired concentration for 48 h. The cell viabilities were calculated using MTT assay. Briefly, 20 μL of 3-(4,5-dimethylthiazol-2-yl)-2,5-diphenyltetrazolium bromide MTT (5 mg/mL, in Hank's balanced salt solution) were added and the cells were incubated for an additional 3.5 h. The medium was then removed, and […] of DMSO was added to dissolve the formazan crystal formed. The optical density of each well (at 570 nm) was measured with a BioTek Synergy 4 Microplate Reader. The viability of each cell line in response to the treatment with tested compounds was calculated as: % dead cells=100−(OD treated/OD control)×100.
# U87-MG cells = assay: Cytotoxicity (cell viability) on U87-MG cells; type: cell-based
# K562 leukemia cells = assay: Cytotoxicity (cell viability) on K562 cells; type: cell-based
# [1] = test system: MDA-MB-231 “triple negative” breast cancer cells; assay: Cytotoxicity (cell viability) on MDA-MB-231 cells; type: cell-based; conditions: MDA-MB-231 (breast cancer cells)
# [2] = test system: U87-MG (Glioblastoma) cells as compared to HUVEC (normal cells); assay: Uptake by U87-MG cells as compared to HUVEC; type: cell-based, human
# [3] = test system: U87-MG (Glioblastoma) cells; assay: Light and dark toxicity on U87-MG cells; type: cell-based, human
# HUVEC = assay: Light and dark toxicity on HUVEC; type: cell-based; conditions: 1 h incubation, 10 minutes irradiation
# Text: HUVEC cells are non-carcinogentic, “normal” […] cells.
SMILES,"cytotoxicity compared with parent dye, parent kinase inhibitor (and their mixture) (HEPG2 cells)","cytotoxicity compared with parent dye, parent kinase inhibitor (and their mixture) (U87-MG cells; U87-MG cells (glioblastoma))","cytotoxicity compared with ICG-COOH conjugate (U87-MG cells; U87-MG, 24 and 48 h)","cytotoxicity compared with parent dye, parent kinase inhibitor (and their mixture) (K562 leukemia cells)","cytotoxicity compared with parent dye, parent kinase inhibitor (and their mixture) [1]",uptake by U87-MG cells compared to HUVEC [2],"light versus dark toxicity ([3]; 1, 2, 4 and 6 h incubation, 10 mins irradiation)","light versus dark toxicity ([3]; 1 h incubation, irradiation 5, 10, 15, 20 minutes)",phototoxic effect on normal cells (HUVEC)
CC(=O)c1c(C)c2cnc(Nc3ccc(N4CCN(C(=O)CCCCCN5/C(=C/C=C6\CCCC(/C=C/C7=[N+](CCCCCC(=O)[O-])c8ccccc8C7(C)C)=C6Cl)C(C)(C)c6ccccc65)CC4)cn3)nc2n(C2CCCC2)c1=O [Compound 1b],"more found to be toxic than individual 1, b or a combination of 1+b; also recorded: significantly more toxic than the parent dye, the parent kinase inhibitor, or a mixture of the dye and kinase inhibitor","more found to be toxic than individual 1, b or a combination of 1+b; also recorded: significantly more toxic than the parent dye, the parent kinase inhibitor, or a mixture of the dye and kinase inhibitor",more toxic than ICG-COOH-b,"more found to be toxic than individual 1, b or a combination of 1+b; also recorded: significantly more toxic than the parent dye, the parent kinase inhibitor, or a mixture of the dye and kinase inhibitor",more toxic than 1 and b; also recorded: more toxic than b or 1,localizes more in U87-MG cells than HUVEC cells,,,
CC1(C)C(=CC=C2CCCC(C=CC3=[N+](CCCCCC(=O)O)c4ccc(I)cc4C3(C)C)=C2Cl)N(CCCCCC(=O)O)c2ccc(I)cc21 [Compound 2aa],,,,,,the cancer cells uptake more of the compound,Light toxicity was more than light in every case,kills the cells more in light than in dark,does not significantly kill normal cells
